Measurements as given in ChEMBL document CHEMBL4007392, “Modulating Mineralocorticoid Receptor with Non-steroidal Antagonists. New Opportunities for the Development of Potent and Selective Ligands without Off-Target Side Effects” (J Med Chem, 2017).

Experiments:
[1] = biological target: T1, Mineralocorticoid receptor (Homo sapiens, UniProt P08235); experiment: Displacement of [3H]-Aldosterone from MR overexpressed in human 293 cells measured after overnight incubation by TopCount method; type: cell-based
T1 sequence (P08235 whole entry): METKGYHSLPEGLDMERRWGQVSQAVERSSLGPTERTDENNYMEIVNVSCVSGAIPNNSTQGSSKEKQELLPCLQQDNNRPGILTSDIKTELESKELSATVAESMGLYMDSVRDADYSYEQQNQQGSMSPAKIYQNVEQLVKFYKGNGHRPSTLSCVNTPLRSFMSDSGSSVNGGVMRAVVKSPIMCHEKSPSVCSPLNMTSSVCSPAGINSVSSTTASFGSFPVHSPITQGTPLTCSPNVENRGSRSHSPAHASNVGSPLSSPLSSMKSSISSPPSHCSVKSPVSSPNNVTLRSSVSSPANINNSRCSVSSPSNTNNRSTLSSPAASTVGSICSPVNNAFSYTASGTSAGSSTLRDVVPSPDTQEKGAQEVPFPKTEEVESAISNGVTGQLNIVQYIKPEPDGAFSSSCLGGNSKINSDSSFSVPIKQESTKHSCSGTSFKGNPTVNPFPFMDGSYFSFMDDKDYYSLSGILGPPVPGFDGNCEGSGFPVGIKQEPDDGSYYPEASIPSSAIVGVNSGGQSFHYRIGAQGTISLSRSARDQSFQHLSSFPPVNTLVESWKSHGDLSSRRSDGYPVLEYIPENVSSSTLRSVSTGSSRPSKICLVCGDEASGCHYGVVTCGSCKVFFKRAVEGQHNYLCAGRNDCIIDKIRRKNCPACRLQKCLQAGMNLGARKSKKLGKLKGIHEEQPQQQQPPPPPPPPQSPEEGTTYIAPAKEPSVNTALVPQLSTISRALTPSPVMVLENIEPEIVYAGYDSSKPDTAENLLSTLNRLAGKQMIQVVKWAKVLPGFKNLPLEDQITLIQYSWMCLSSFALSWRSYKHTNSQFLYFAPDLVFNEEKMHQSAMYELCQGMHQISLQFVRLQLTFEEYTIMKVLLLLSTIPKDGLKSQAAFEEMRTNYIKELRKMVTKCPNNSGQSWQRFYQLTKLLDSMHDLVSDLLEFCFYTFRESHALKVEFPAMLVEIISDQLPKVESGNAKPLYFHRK

Glucocorticoid receptor = biological target: T2, Glucocorticoid receptor (Homo sapiens, UniProt P04150); experiment: Displacement of [3H]-dexamethasone from GR overexpressed in human 293 cells measured after overnight incubation by TopCount method; type: cell-based
T2 sequence (P04150 whole entry): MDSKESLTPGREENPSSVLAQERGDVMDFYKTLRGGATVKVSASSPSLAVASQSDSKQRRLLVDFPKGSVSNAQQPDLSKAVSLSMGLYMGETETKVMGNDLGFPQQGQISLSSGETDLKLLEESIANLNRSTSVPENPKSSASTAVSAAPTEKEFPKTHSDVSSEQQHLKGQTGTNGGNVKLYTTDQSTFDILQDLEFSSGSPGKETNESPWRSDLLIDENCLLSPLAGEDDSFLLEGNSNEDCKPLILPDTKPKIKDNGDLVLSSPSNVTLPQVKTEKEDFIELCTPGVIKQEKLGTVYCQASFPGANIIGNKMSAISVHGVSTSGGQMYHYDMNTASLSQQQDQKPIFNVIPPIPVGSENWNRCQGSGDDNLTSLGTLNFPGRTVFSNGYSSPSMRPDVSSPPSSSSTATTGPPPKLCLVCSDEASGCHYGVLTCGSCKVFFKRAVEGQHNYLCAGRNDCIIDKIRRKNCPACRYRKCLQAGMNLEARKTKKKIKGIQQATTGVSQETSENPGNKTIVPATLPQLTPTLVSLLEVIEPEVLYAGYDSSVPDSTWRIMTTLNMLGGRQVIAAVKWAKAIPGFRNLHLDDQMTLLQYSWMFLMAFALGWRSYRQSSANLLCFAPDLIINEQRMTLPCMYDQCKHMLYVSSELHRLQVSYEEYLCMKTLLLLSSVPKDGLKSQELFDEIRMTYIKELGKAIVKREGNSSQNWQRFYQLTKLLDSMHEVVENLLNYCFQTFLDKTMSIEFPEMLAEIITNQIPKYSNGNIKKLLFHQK

[2] = biological target: T3, Mineralocorticoid receptor (Rattus norvegicus, UniProt P22199); experiment: Displacement of [3H]-Aldosterone from MR in rat renal soluble fraction measured after 18 hrs in presence of glucocorticoid receptor antagonist RU-486 by liquid scintillation counting method
T3 sequence (P22199 whole entry): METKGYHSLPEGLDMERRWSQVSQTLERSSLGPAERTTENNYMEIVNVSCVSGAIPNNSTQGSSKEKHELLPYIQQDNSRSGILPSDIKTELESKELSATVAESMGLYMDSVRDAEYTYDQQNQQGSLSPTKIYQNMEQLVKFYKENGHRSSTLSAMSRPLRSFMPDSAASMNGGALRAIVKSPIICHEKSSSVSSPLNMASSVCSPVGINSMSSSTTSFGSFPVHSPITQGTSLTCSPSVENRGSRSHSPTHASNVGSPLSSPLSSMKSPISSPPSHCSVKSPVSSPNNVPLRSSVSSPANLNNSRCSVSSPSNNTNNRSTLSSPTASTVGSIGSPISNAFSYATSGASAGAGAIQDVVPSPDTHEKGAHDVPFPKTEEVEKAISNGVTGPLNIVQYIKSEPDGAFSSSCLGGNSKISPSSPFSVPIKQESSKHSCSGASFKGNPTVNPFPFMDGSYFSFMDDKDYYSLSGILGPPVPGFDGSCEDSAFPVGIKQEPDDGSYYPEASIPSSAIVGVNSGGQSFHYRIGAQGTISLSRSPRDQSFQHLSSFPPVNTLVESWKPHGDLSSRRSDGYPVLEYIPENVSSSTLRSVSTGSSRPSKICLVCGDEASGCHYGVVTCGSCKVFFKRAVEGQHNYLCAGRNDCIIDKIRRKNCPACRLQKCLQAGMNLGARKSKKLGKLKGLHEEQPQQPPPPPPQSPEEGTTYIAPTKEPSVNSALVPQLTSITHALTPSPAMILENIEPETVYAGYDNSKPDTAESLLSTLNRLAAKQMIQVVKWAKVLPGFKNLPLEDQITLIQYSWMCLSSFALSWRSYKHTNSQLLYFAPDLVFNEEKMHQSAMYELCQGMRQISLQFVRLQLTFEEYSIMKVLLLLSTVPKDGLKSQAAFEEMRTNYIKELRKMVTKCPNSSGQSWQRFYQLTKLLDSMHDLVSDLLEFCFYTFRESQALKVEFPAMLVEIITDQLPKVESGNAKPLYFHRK

[3] = biological target: T4, Mineralocorticoid receptor (Homo sapiens) (UniProt P08235); experiment: Antagonist activity at full-length human MR expressed in CHO-K1 cells assessed as inhibition of aldosterone-induced response measured after overnight incubation by luminesence analysis; type: cell-based
T4 sequence (whole entry): T1 sequence (P08235 whole entry)

[4] = Half life in human liver microsomes; type: ADME, microsome
[5] = Half life in human hepatocytes; type: ADME, cell-based, Hepatocyte
[6] = biological target: T1, Mineralocorticoid receptor; experiment: Binding affinity to MR (unknown origin)
[7] = biological target: T1, Mineralocorticoid receptor; experiment: Antagonist activity at Gal4-fused MR LBD (unknown origin) expressed in human Huh7 cells assessed as inhibition of aldosterone-induced transcriptional activity after 3 hrs by luciferase reporter gene assay; type: cell-based

With Cc1ccc(C(C)(c2c[nH]c3c(NS(C)(=O)=O)cccc23)C2CC2)cc1 (stereo not given) the Ki [1] was ≤ 500 nM and the Ki (Glucocorticoid receptor) was ≤ 500 nM.
Molecule COc1cc(NC(=O)c2ccc(-c3ccccc3OC(F)(F)F)c(CCN3CC(C)OC(C)C3)c2)ccc1S(N)(=O)=O (stereo not given) has an IC50 [2] of 61 nM.
Work on CCC(c1ccc(Br)cc1)(C(C)O)n1ncc2c(NS(C)(=O)=O)cccc21 (stereo not given) yielded an Inhibitory potency [3] of 7 nM, a half-life [4] of 48 min and a half-life [5] of 69 min.
With C[C@]12CCC(=O)C=C1CC[C@@H]1[C@@H]2[C@@H](O)C[C@@]2(C)[C@H]1CC[C@]2(O)C(=O)CO [HYDROCORTISONE] the Kd [6] was 0.5 to 2 nM.
C[C@]12C[C@H](O)[C@H]3[C@@H](CCC4=CC(=O)CC[C@@]43C)[C@@H]1CC[C@@H]2C(=O)CO [CORTICOSTERONE] showed a Kd [6] of 0.5 to 2 nM.
COc1cc(NC(=O)c2ccc(-c3ccccc3OC(F)(F)F)c(CCN(C)C3CC3)c2)ccc1S(N)(=O)=O gave an IC50 [2] of 22 nM.
C[C@@H]1CN(c2ccc3c(n2)NC(=O)CO3)CCO1 gave an IC50 [7] of 3050 nM.
